Earlier results as cited in US4127525A, “Novel tridecapeptides, intermediates therefor, and compositions and methods employing said tridecapeptides” (priority 1977, dated 1978).

Columns and labels:
rat = conditions: injected directly into the brain of the rat
[1] = test system: partially purified brain opiate receptor sites; conditions: natural peptide

## H-Tyr-Gly-Gly-Phe-Met-OH [methionine enkephalin]
rat
  analgesic activity: only weak analgesic agent of short duration
[1]
  binding to partially purified brain opiate receptor sites: binds stereo-specifically
